Data as given in PubChem BioAssay AID248 (DTP/NCI, 2004).
“And” between values parts separate entries of the source, which are not always exact repeats. Identical values can stand only once. Toxic doses and inconclusive results are not listed. No stated cut-off is given here; in the data, active means T/C of 150% or more; inactive means T/C below 125%.

Tested on: L1210 leukemia ip in BDF1 mice, survival T/C
Test: NCI In Vivo Anticancer Drug Screen. Data for tumor model L1210 Leukemia (intraperitoneal) in B6D2F1 (BDF1) mice
Settings: endpoint: mean survival time, higher = longer survival
How it was run: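 Value reflects the ratio of survival in compound-treated mice to survival in vehicle-treated controls, with both groups carrying the same transplanted tumor.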

[1] = dose: 100.0 mg/kg/injection, schedule: Q01DX001 (ip), vehicle: Klucel (hydroxypropylcellulose) (HPC)
[2] = dose: 100.0 mg/kg/injection, schedule: Q01DX009 (ip), vehicle: Klucel (hydroxypropylcellulose) (HPC)
[3] = dose: 100.0 mg/kg/injection, schedule: Q04DX003 (ip), vehicle: Klucel (hydroxypropylcellulose) (HPC)
[4] = dose: 200.0 mg/kg/injection, schedule: Q01DX001 (ip), vehicle: Klucel (hydroxypropylcellulose) (HPC)
[5] = dose: 200.0 mg/kg/injection, schedule: Q01DX009 (ip), vehicle: Klucel (hydroxypropylcellulose) (HPC)
[6] = dose: 200.0 mg/kg/injection, schedule: Q04DX003 (ip), vehicle: Klucel (hydroxypropylcellulose) (HPC)
[7] = dose: 400.0 mg/kg/injection, schedule: Q01DX001 (ip), vehicle: Klucel (hydroxypropylcellulose) (HPC)
[8] = dose: 400.0 mg/kg/injection, schedule: Q01DX009 (ip), vehicle: Klucel (hydroxypropylcellulose) (HPC)
[9] = dose: 400.0 mg/kg/injection, schedule: Q04DX003 (ip), vehicle: Klucel (hydroxypropylcellulose) (HPC)
[10] = dose: 100.0 mg/kg/injection, schedule: Q01DX001 (ip), vehicle: saline
[11] = dose: 200.0 mg/kg/injection, schedule: Q01DX001 (ip), vehicle: saline
[12] = dose: 25.0 mg/kg/injection, schedule: Q01DX009 (ip), vehicle: saline with Tween-80
[13] = dose: 50.0 mg/kg/injection, schedule: Q01DX009 (ip), vehicle: saline with Tween-80
[14] = dose: 100.0 mg/kg/injection, schedule: Q01DX009 (ip), vehicle: saline with Tween-80
[15] = dose: 400.0 mg/kg/injection, schedule: Q01DX001 (ip), vehicle: saline
[16] = dose: 100.0 mg/kg/injection, schedule: Q04DX003 (ip), vehicle: saline with Tween-80
[17] = dose: 200.0 mg/kg/injection, schedule: Q04DX003 (ip), vehicle: saline with Tween-80
[18] = dose: 400.0 mg/kg/injection, schedule: Q04DX003 (ip), vehicle: saline with Tween-80
[19] = dose: 100.0 mg/kg/injection, schedule: Q04DX003 (ip), vehicle: saline
[20] = dose: 200.0 mg/kg/injection, schedule: Q04DX003 (ip), vehicle: saline

Measured: T/C

Cc1ccc(S(=O)(=O)OCCS(C)(=O)=O)cc1
inactive: [1] 102 % of control | [2] 103 % of control | [3] 101 % of control | [4] 106 % of control | [5] 101 % of control | [6] 103 % of control | [7] 104 % of control | [8] 101 % of control | [9] 97 % of control

CCOC(=O)C(N)CCl (stereo not drawn)
inactive: dose: 6.25 mg/kg/injection, schedule: Q01DX001 (ip), vehicle: saline 100 % of control | dose: 12.5 mg/kg/injection, schedule: Q01DX001 (ip), vehicle: saline 101 % of control | dose: 25.0 mg/kg/injection, schedule: Q01DX001 (ip), vehicle: saline 101 % of control | dose: 50.0 mg/kg/injection, schedule: Q01DX001 (ip), vehicle: saline 99 % of control | [10] 97 % of control | [11] 95 % of control

O=C(Nc1cc([N+](=O)[O-])ccc1F)N(Cc1ccccc1)c1ccccc1
inactive: [3] 97 % of control | [6] 92 % of control | [9] 87 % of control

C[N+]1(CCO)CC[N+](C)(CCO)CC1 (stereo not drawn)
inactive: dose: 100.0 mg/kg/injection, schedule: Q04DX002 (ip), vehicle: saline 90 % of control | dose: 200.0 mg/kg/injection, schedule: Q04DX002 (ip), vehicle: saline 104 % of control | dose: 400.0 mg/kg/injection, schedule: Q04DX002 (ip), vehicle: saline 101 % of control

CCOC(=O)CSc1ccc2ccccc2[n+]1-c1ccccc1
inactive: [10] 99 % of control | [11] 94 % of control

O=C1C(Cl)=CC(Cl)=C/C1=N/Cl
inactive: dose: 25.0 mg/kg/injection, schedule: Q01DX001 (ip), vehicle: Klucel (hydroxypropylcellulose) (HPC) 110 % of control | dose: 50.0 mg/kg/injection, schedule: Q01DX001 (ip), vehicle: Klucel (hydroxypropylcellulose) (HPC) 107 % of control | [1] 95 % of control and 100 % of control

Cn1c2nc(=O)n(-c3ccccc3)c(=O)c-2nc2c1CCCC2
inactive: dose: 6.25 mg/kg/injection, schedule: Q01DX009 (ip), vehicle: saline with Tween-80 110 % of control | dose: 12.5 mg/kg/injection, schedule: Q01DX009 (ip), vehicle: saline with Tween-80 106 % of control | [12] 101 % of control | [13] 103 % of control | [14] 105 % of control | dose: 200.0 mg/kg/injection, schedule: Q01DX009 (ip), vehicle: saline with Tween-80 100 % of control

CC1=CC(C)(C(Cl)(Cl)Cl)C(C)=C/C1=N/O (stereo not drawn)
inactive: [2] 99 % of control | [5] 89 % of control

COC(=O)c1cocc1C(=O)N1Cc2cc3ccccc3nc2C1
inactive: [1] 103 % of control | [4] 95 % of control | [7] 94 % of control

Cc1ccc(N=Nc2c(C)nn(C(N)=S)c2C)cc1
inactive: dose: 75.0 mg/kg/injection, schedule: Q01DX001 (ip), vehicle: other 100 % of control | dose: 150.0 mg/kg/injection, schedule: Q01DX001 (ip), vehicle: other 103 % of control

CC(C)(CO)N(CC(=O)O)CC(=O)O
inactive: [10] 101 % of control | [11] 103 % of control

CC(=O)Nc1ccc(S(=O)(=O)NC2(c3ccccc3)C(=O)N(C)C(=O)N(C)C2=O)cc1
inactive: [10] 91 % of control | [11] 94 % of control | [15] 103 % of control

NC(=O)/C=C/C(N)=O
inactive: [12] 91 % of control | [13] 88 % of control | [14] 88 % of control | [16] 89 % of control | [17] 94 % of control | [18] 92 % of control

CC/C=C(\C)C1(CC)C(=O)NC(=S)NC1=O
inactive: dose: 75.0 mg/kg/injection, schedule: Q01DX001 (ip), vehicle: carboxymethylcellulose (CMC) 89 % of control

C[C@]12C=CC(=O)C=C1CC[C@H]1[C@@H]3C[C@@H](O)[C@](O)(C(=O)CO)[C@@]3(C)C[C@H](O)[C@@]12F
inactive: dose: 50.0 mg/kg/injection, schedule: Q04DX003 (sc), vehicle: steriod suspending solution 102 % of control | dose: 100.0 mg/kg/injection, schedule: Q01DX001 (sc), vehicle: steriod suspending solution 105 % of control | dose: 100.0 mg/kg/injection, schedule: Q04DX003 (sc), vehicle: steriod suspending solution 97 % of control | dose: 200.0 mg/kg/injection, schedule: Q01DX001 (sc), vehicle: steriod suspending solution 107 % of control | dose: 200.0 mg/kg/injection, schedule: Q04DX003 (sc), vehicle: steriod suspending solution 106 % of control | dose: 400.0 mg/kg/injection, schedule: Q01DX001 (sc), vehicle: steriod suspending solution 105 % of control | dose: 400.0 mg/kg/injection, schedule: Q04DX003 (sc), vehicle: steriod suspending solution 110 % of control

O=C(O)c1cc(C(Cl)(Cl)Cl)ccc1C(Cl)(Cl)Cl
inactive: dose: 50.0 mg/kg/injection, schedule: Q01DX009 (ip), vehicle: saline sonified 95 % of control | dose: 50.0 mg/kg/injection, schedule: Q04DX003 (ip), vehicle: Klucel (hydroxypropylcellulose) (HPC) 97 % of control | dose: 100.0 mg/kg/injection, schedule: Q01DX009 (ip), vehicle: saline sonified 101 % of control | [3] 96 % of control | dose: 200.0 mg/kg/injection, schedule: Q01DX009 (ip), vehicle: saline sonified 98 % of control | [6] 103 % of control

C(=Nc1ccccc1)c1ccccc1
inactive: dose: 50.0 mg/kg/injection, schedule: Q01DX001 (ip), vehicle: carboxymethylcellulose (CMC) 98 % of control | dose: 100.0 mg/kg/injection, schedule: Q01DX001 (ip), vehicle: carboxymethylcellulose (CMC) 96 % of control | dose: 100.0 mg/kg/injection, schedule: Q01DX009 (ip), vehicle: saline 98 % of control | [19] 104 % of control | dose: 200.0 mg/kg/injection, schedule: Q01DX001 (ip), vehicle: carboxymethylcellulose (CMC) 91 % of control | dose: 200.0 mg/kg/injection, schedule: Q01DX009 (ip), vehicle: saline 100 % of control | [20] 105 % of control | dose: 400.0 mg/kg/injection, schedule: Q01DX001 (ip), vehicle: carboxymethylcellulose (CMC) 91 % of control

O=C(O)CN(CCCCN(CC(=O)O)CC(=O)O)CC(=O)O
inactive: dose: 100.0 mg/kg/injection, schedule: Q01DX001 (ip), vehicle: other 111 % of control | dose: 200.0 mg/kg/injection, schedule: Q01DX001 (ip), vehicle: other 117 % of control | dose: 400.0 mg/kg/injection, schedule: Q01DX001 (ip), vehicle: other 96 % of control

CSC(=NCc1ccccc1)NC1CCCCC1
inactive: dose: 12.5 mg/kg/injection, schedule: Q04DX002 (ip), vehicle: Klucel (hydroxypropylcellulose) (HPC) 100 % of control | dose: 25.0 mg/kg/injection, schedule: Q04DX002 (ip), vehicle: Klucel (hydroxypropylcellulose) (HPC) 107 % of control | dose: 50.0 mg/kg/injection, schedule: Q04DX002 (ip), vehicle: Klucel (hydroxypropylcellulose) (HPC) 107 % of control

CC(=O)Nc1c(Cl)cc2c(c1Cl)Cc1c-2cc(Cl)c(NC(C)=O)c1Cl
inactive: [16] 93 % of control | [17] 93 % of control | [18] 101 % of control

Cc1ccc(N=Nc2c(N)nc(N)[nH]c2=O)cc1C
inactive: [10] 100 % of control | [11] 96 % of control | [15] 96 % of control

O=C1CCSC(=O)N1SC(Cl)(Cl)Cl
inactive: dose: 6.0 mg/kg/injection, schedule: Q04DX003 (ip), vehicle: saline with Tween-80 88 % of control | dose: 12.0 mg/kg/injection, schedule: Q01DX009 (ip), vehicle: saline with Tween-80 94 % of control | dose: 12.0 mg/kg/injection, schedule: Q04DX003 (ip), vehicle: saline with Tween-80 101 % of control | [12] 92 % of control | dose: 25.0 mg/kg/injection, schedule: Q04DX003 (ip), vehicle: saline with Tween-80 97 % of control and 101 % of control | [13] 93 % of control and 90 % of control | [19] 98 % of control | [20] 93 % of control

CCOc1ccccc1/C=N/N1CCN(/N=C/c2ccccc2OCC)CC1
inactive: [10] 100 % of control | [11] 90 % of control | [15] 90 % of control

Cc1ccc(NC(=O)Oc2ccc(-c3ccccc3)cc2)cc1
inactive: [2] 107 % of control | [5] 100 % of control | [8] 92 % of control
